Like-named read-outs stand apart in the source and are kept apart here.
How the values were obtained:
HIV-1 = assay: Anti-viral activity: syncytium formation (Sup T1) or reverse transcriptase assay (H9); assay type: cell-based; settings: Human immunodeficiency virus 1, SUP-T1
Experimental: The anti-viral activity of the compounds of the present invention was determined by measuring the concentration of the compounds that inhibits the proliferation of HIV by 50%(IC50) through a survey for syncytium formation or reverse transcriptase assay.
1×10^5 cells of each of H9(ATCC HTB 176) and Sup T1 cell lines were added to the wells of a 24-well microtiter plate and various concentrations so the compounds of the present invention were added thereto. 200 TCID50 (200-fold of 50% tissue culture infection dose) of HIV-1 inoculum and rpmi-1640 medium(Sigma Chemical Co., U.S.A) were added successively to the wells and the plate was incubated at 37° C. In case of Sup T1, the number of syncytium formed was investigated after 3 to 9 days. IC50 of each compound was determined by measuring the concentration of inhibitor that can reduce the number of syncytium by 50% compared with those formed in the same condition without the inhibitor.
In case of H9, three-quarters(3/4) of the culture medium in volume was refreshed every 3 days; and 6 ml of the culture fluid was centrifuged at 1000 rpm for 10 minutes. To 5 ml of the resulting supernatant were added 2.5 ml of 30% polyethyleneglycol(PEG, M.W. 6000-8000) and 0.4M NaCl. The resulting solution was allowed to stand at 0° C. overnight to precipitate virus particles. The solution was centrifuged at 2000 rpm for 45 minutes, the supernatant was discarded therefrom and the precipitate was diluted with 20 μl of a reverse transcriptase suspension buffer(50 mM tris-HCl, pH 7.5, 1 mM dithiothreitol, 20% glycerol, 0.25M KCl and 0.25% Triton X-100). The resulting suspension was stored in an Effendorf tube at -70° C. until used. A procedure of freezing said virus suspension for 2 minutes in dry ice and thawing same at 37° C. for 2 minutes was repeated three times and the resulting suspension was centrifuged at 4° C. The resulting supernatant was used in carrying out the reverse transcriptase assay.
10 μl of the said viral suspension was added to a solution of: 10 μl of buffer solution(250 mM tris-HCl, pH 7.5, 37.5 mM MgCl2, 0.25% triton X-100), 1.2 μl of 200 mM dithiothreitol, 5 μl of 10 μM oligo(dT)-poly(A)(Boeringer Manheim, 12-18 oligomer), 1 μl(1 μCi) of ^3 H-TTP(Thymidinetri-phosphate) and 23.6 μl of water; and the resulting mixture was placed at 37° C. After 1 hour, the mixture was poured onto a WHATMAN DEB1 filter and the filter was washed three times with 5 ml of 2×SSC buffer solution(17.53 g of sodium chloride, 8.82 g of sodium citrate, pH 7.0, 1 liter of water) for about 10 minutes each time and twice with 95% ethanol for 10 seconds. The filter was put onto aluminium foil and dried with an infra-red lamp. The amount of radioactivity was counted using a liquid scintillation counter. IC50 of each compound was determined by measuring the concentration of inhibitor that can reduce the activity of reverse transcriptase by 50%.

HIV-1 protease = biological target: T1, HIV-1 protease (Human immunodeficiency virus type 1 group M subtype B, UniProt P04585); assay: Assay for inhibitory effect on HIV protease (residual enzyme activity, HPLC of substrate cleavage); assay type: biochemical; settings: pH 5.5; for Ki / kinact: HIV-1 protease 2.6 nM; for Ki: inhibition constant; for kinact: rate constant of covalent bond formation, read-out: kina (converted); for kinact/KI: second order rate constant, HIV-1 protease, read-out: kina /KI (converted)
T1 construct: 2.6 nM of HIV-1 protease
Experimental: The inhibitory effect on HIV protease of the compounds of the present invention was determined by the following method.
To a buffer solution comprising 50 mM sodium acetate, pH 5.5, 1 mM dithiothreitol(DTT), 1 mM ethylenediaminetetraacetate (EDTA), 0.75M ammonium sulfate, 0.2M sodium chloride and 0.1% NP40(NONIDET P-40; Sigma Chemical Co., U.S.A.), were added various concentrations of a compound selected from Compound Nos. 1 to 92 to prepare a preincubation solution. Inhibition reaction was started with the addition of 2.6 nM of HIV-1 protease to the preincubation solution. Each 10 μl of the reaction solution was taken at a given time interval and added to 80 μl of assay solution containing 100 μM of reaction substrate in the same buffer solution as above to assay for the residual enzyme activity. In this context, an oligopeptide(KM =20 μM) consisting of 11 amino acids, i.e., Ser-Ile-Ala-Glu-(p-NO2)-Phe-Leu-Val-Arg-Ala-Lys-His, was used as a reaction substrate, which oligopeptide was to be cleaved in two by the breakage of amide bond between (P--NO2)-Phe and Leu upon the attack of HIV protease. The reaction rate was determined by subjecting the substrate before the reaction and the product after the reaction to HPLC separation and then measuring the relative amount of the product, using the strong absorbance of (p--NO2)-Phe at 280 nm. The amount of reduction in enzyme activity according to the elapsed time were measured and the natural logarithmic values(ln) of the measured amounts were plotted against time to obtain a linear graph and kobs was calculated from the slope of the linear graph.
The inhibition constant was calculated according to the following equation: [formula] wherein: kobs is a rate constant indicating the rate of reduction in enzyme activity according to the elapsed time under the presence of a given concentration of inhibitor,
kina is a rate constant indicating the rate of chemical reaction forming covalent bond between an enzyme and an inhibitor in Michaelis-Menten complex,
KI is an inhibition constant indicating the dissociation rate of Michaelis-Menten complex into an enzyme and an inhibitor, and
[I] means the inhibitor concentration.
The above equation is applicable to an experiment carried out under the condition in which the concentration of inhibitor is far higher than that of enzyme(Steady State Kinetic). […] The inhibition constants KI and kina and second order rate constant kina /KI were obtained by inputting the value of [E]/([E]+[EI]+[EI']) into KINSIM/FITSIM program. FIG. 1 exemplifies a result of the experiment determining the binding ratio of enzymes and inhibitors, which result was obtained by reacting the enzyme and the inhibitor in various concentration ratios for a sufficient time period(at least for 30 minutes), and then plotting the relative activity of the remaining enzyme against [conc. of inhibitor]/[conc. of enzyme].

[1] = Cytotoxicity in H9 or Sup T1 cells (trypan blue dye exclusion); assay type: cell-based; settings: human
Experimental: To determine the cytotoxicity of the compounds of the present invention, 0.1 μM to 100 μM of the novel compounds were added to H9 cell or Sup T1 cell and the mixture was cultured on a rpmi-1640 medium at 37° C. The medium was refreshed every 3 days and the extent of cell proliferation was observed using Hemacytometer according to the trypan blue dye exclusion technique which is well known in the art. CT50 (i.e., concentration that causes death of cells by 50%) was determined. For reference, AZT(Burrows-Wellcome), A-75925 (Abbott, C2 symmetric compound) and Ro-31-8959(F. Hofmann-La Roche) were used as control compounds.

[2] = concentration that causes death of cells by 50%, H9 or Sup T1 cells, 37° C, read-out: CT50 (the source's name)

## CC[C@H](C)[C@H](NC(=O)C[C@@H]1O[C@@H]1[C@H](Cc1ccccc1)NC(=O)[C@H](CC(N)=O)NC(=O)c1ccc2ccccc2n1)C(N)=O [compound 27, N-{5-L-[[N-(2-quinolinecarbonyl)-L-asparaginyl]amino]-(4R,3S)-epoxy-6-phenylhexanoyl}-L-isoleucinyl amide]
HIV-1
  IC50: 1000 nM
HIV-1 protease
  Ki: 3 nM
  kinact: 0.00333 s⁻¹
  kinact/KI: 1.12e+06 M⁻¹ s⁻¹
[1]; [2]
  CC50: ~10000 nM

## COC(=O)C(CCC(N)=O)NC(=O)C[C@@H]1O[C@@H]1[C@H](Cc1ccccc1)NC(=O)[C@H](CC(N)=O)NC(=O)OCc1ccccc1 (some centres unmarked) [compound 13]
HIV-1
  IC50: 10000 nM
HIV-1 protease
  Ki: 520 nM
  kinact: 0.00717 s⁻¹
  kinact/KI: 13800 M⁻¹ s⁻¹
[1]; [2]
  CC50: > 100000 nM

## CC(C)CC[C@@H]1O[C@@H]1[C@H](Cc1ccccc1)NC(=O)[C@H](CC(N)=O)NC(=O)c1ccc2ccccc2n1 [compound 70, 2-L-[N-(2-quinolinecarbonyl)-L-asparaginyl]amino-(3R,4S)-epoxy-7-methyl-1-phenyloctane]
HIV-1
  IC50: 5000 nM
HIV-1 protease
  Ki: 310 nM
  kinact: 0.002 s⁻¹
  kinact/KI: 6500 M⁻¹ s⁻¹
[1]; [2]
  CC50: > 100000 nM

## CC(C)(C)NC(=O)[C@@H]1C[C@@H]2CCCC[C@@H]2CN1C[C@@H](O)[C@H](Cc1ccccc1)NC(=O)[C@H](CC(N)=O)NC(=O)c1ccc2ccccc2n1 [Ro-31-8959, reference compound]
HIV-1
  IC50: 40 nM
[1]; h9 or sup t1 cells
  CC50: > 100000 nM

## CC(C)[C@@H](CCc1ccccc1)NC(=O)C[C@@H]1O[C@@H]1[C@H](Cc1ccccc1)NC(=O)[C@H](CC(N)=O)NC(=O)c1ccc2ccccc2n1 [compound 49]
HIV-1
  IC50: > 5000 nM
HIV-1 protease
  Ki: 800 nM
  kinact: 0.03 s⁻¹
  kinact/KI: 38300 M⁻¹ s⁻¹
[1]; [2]
  CC50: > 100000 nM

## CC(C)[C@H](NC(=O)C[C@@H]1O[C@@H]1[C@H](Cc1ccccc1)NC(=O)[C@H](CC(N)=O)NC(=O)c1ccc2ccccc2n1)C(=O)NCc1ccccn1 [compound 19]
HIV-1
  IC50: 5000 nM
HIV-1 protease
  Ki: 81 nM
  kinact: 0.00367 s⁻¹
  kinact/KI: 45000 M⁻¹ s⁻¹
[1]; [2]
  CC50: > 100000 nM

## NC(=O)C[C@H](NC(=O)c1ccc2ccccc2n1)C(=O)N[C@@H](Cc1ccccc1)[C@H]1O[C@H]1CCc1ccccc1 [compound 62, 2-L-(N-2-quinolinecarbonyl-L-asparaginyl)amino-(3R,4S)-epoxy-1,6-diphenylhexane]
HIV-1
  IC50: 200 to 700 nM
HIV-1 protease
  Ki: 130 nM
  kinact: 0.00183 s⁻¹
  kinact/KI: 14200 M⁻¹ s⁻¹
[1]; [2]
  CC50: > 100000 nM

## CC(C)[C@H](NC(=O)C[C@@H]1O[C@@H]1[C@H](Cc1ccccc1)NC(=O)[C@H](CC(N)=O)NC(=O)c1ccc2ccccc2n1)c1ccccc1 [compound 47]
HIV-1
  IC50: 70 nM
HIV-1 protease
  Ki: 12 nM
  kinact: 0.0383 s⁻¹
  kinact/KI: 3.17e+06 M⁻¹ s⁻¹
[1]; [2]
  CC50: > 100000 nM

## CC(C)[C@H](NC(=O)OCc1ccccc1)C(=O)NC[C@@H]1O[C@@H]1[C@H](CC1CCCCC1)NC(=O)[C@@H](NC(=O)OCc1ccccc1)C(C)C [compound 86, 4S-1,4-bis[N-(N'-benzyloxycarbonyl-L-valinyl)amino]-5-cyclohexyl-(2S,3R)-(Z)-epoxypentane]
HIV-1
  IC50: 500 nM
HIV-1 protease
  Ki: 50 nM
  kinact: 0.00333 s⁻¹
  kinact/KI: 66700 M⁻¹ s⁻¹
[1]; [2]
  CC50: > 100000 nM

## NC(=O)C[C@H](NC(=O)OCc1ccccc1)C(=O)NC[C@@H]1O[C@@H]1[C@H](CC1CCCCC1)NC(=O)[C@H](CC(N)=O)NC(=O)OCc1ccccc1 [compound 85]
HIV-1
  IC50: 5000 nM
HIV-1 protease
  Ki: > 10000 nM
[1]; h9 or sup t1 cells
  CC50: > 100000 nM

## CC[C@H](C)[C@H](NC(=O)C[C@@H]1O[C@@H]1[C@H](Cc1ccccc1)NC(=O)[C@H](CC(N)=O)NC(=O)c1ccc2ccccc2n1)C(=O)N[C@H](C(=O)OC)C(C)C [compound 6]
HIV-1
  IC50: 5000 nM
HIV-1 protease
  Ki: 420 nM
  kinact: 0.00217 s⁻¹
  kinact/KI: 5170 M⁻¹ s⁻¹
[1]; [2]
  CC50: > 100000 nM

## CC(C)[C@H](CCCc1ccccc1)NC(=O)C[C@@H]1O[C@@H]1[C@H](Cc1ccccc1)NC(=O)[C@H](CC(N)=O)NC(=O)c1ccc2ccccc2n1 [compound 45]
HIV-1
  IC50: 200 nM
HIV-1 protease
  Ki: 1.2 nM
  kinact: 0.04 s⁻¹
  kinact/KI: 3.33e+07 M⁻¹ s⁻¹
[1]; [2]
  CC50: > 100000 nM

## CC(C)C(NC(=O)C[C@@H]1O[C@@H]1[C@H](Cc1ccccc1)NC(=O)[C@H](CC(N)=O)NC(=O)c1ccc2ccccc2n1)C(C)C [compound 46]
HIV-1
  IC50: 40 nM
HIV-1 protease
  Ki: 0.9 nM
  kinact: 0.00267 s⁻¹
  kinact/KI: 3000 M⁻¹ s⁻¹
[1]; [2]
  CC50: > 100000 nM

## CC[C@H](C)[C@H](NC(=O)C[C@@H]1O[C@@H]1[C@H](Cc1ccccc1)NC(=O)[C@H](CC(N)=O)NC(=O)c1ccc2ccccc2n1)C(=O)NO [compound 40]
HIV-1
  IC50: 700 nM
HIV-1 protease
  Ki: 33 nM
  kinact: 0.00417 s⁻¹
  kinact/KI: 1270 M⁻¹ s⁻¹
[1]; [2]
  CC50: > 100000 nM

## CC(C)[C@H](NC(=O)OCc1ccccc1)C(=O)N[C@@H](Cc1ccccc1)[C@H]1O[C@H]1CCc1ccccc1 [compound 53, 2-L-(N-benzyloxycarbonyl-L-valinyl)amino-(3R,4S)-epoxy-1,6-diphenylhexane]
HIV-1
  IC50: 1000 to 1500 nM
HIV-1 protease
  Ki: 91 nM
  kinact: 0.0015 s⁻¹
  kinact/KI: 16500 M⁻¹ s⁻¹
[1]; [2]
  CC50: > 100000 nM

## CC(C)[C@H](NC(=O)C[C@@H]1O[C@@H]1[C@H](Cc1ccccc1)NC(=O)[C@H](CC(N)=O)NC(=O)c1ccc2ccccc2n1)C(N)=O [compound 32]
HIV-1
  IC50: 500 nM
HIV-1 protease
  Ki: 5 nM
  kinact: 0.00367 s⁻¹
  kinact/KI: 733000 M⁻¹ s⁻¹
[1]; [2]
  CC50: > 100000 nM

## CC(C)[C@@H](CCCc1ccccc1)NC(=O)C[C@@H]1O[C@@H]1[C@H](Cc1ccccc1)NC(=O)[C@H](CC(N)=O)NC(=O)c1ccc2ccccc2n1 [compound 50]
HIV-1
  IC50: > 5000 nM
HIV-1 protease
  Ki: 950 nM
  kinact: 0.025 s⁻¹
  kinact/KI: 26700 M⁻¹ s⁻¹
[1]; [2]
  CC50: > 100000 nM
